Reference: US20230312587A1, “PTERIDINONE COMPOUNDS AND USES THEREOF” (Vertex Pharmaceutical Incorporated, priority 2018, published 2023)
Like-named read-outs stand apart in the source and are kept apart here.

How the values were obtained:
[1] = test system: β-catenin-TCF-mediated reporter transcription activity in Colo 205 cells; assay: Colo 205 reporter assay (TCF/LEF luciferase); assay type: cell-based; details: Colo 205 TCF/LEF luciferase reporter, five hours after addition of compound, read-out: TCF reporter Colo205 IC50
Outline: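 Luciferase signal from a TCF/LEF-driven reporter, stably integrated in Colo 205 colon cancer cells, was measured 5 h after compound addition.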

Plk1 = Plk1 (Homo sapiens (Human), UniProt P53350); assay: PLK1 inhibition assay (radioactive-phosphate incorporation); assay type: biochemical; details: Ki(app), read-out: PLK1 - 33P.ENZ - CB 10 Ki
Plk1, sequence (P53350 whole entry, species assumed): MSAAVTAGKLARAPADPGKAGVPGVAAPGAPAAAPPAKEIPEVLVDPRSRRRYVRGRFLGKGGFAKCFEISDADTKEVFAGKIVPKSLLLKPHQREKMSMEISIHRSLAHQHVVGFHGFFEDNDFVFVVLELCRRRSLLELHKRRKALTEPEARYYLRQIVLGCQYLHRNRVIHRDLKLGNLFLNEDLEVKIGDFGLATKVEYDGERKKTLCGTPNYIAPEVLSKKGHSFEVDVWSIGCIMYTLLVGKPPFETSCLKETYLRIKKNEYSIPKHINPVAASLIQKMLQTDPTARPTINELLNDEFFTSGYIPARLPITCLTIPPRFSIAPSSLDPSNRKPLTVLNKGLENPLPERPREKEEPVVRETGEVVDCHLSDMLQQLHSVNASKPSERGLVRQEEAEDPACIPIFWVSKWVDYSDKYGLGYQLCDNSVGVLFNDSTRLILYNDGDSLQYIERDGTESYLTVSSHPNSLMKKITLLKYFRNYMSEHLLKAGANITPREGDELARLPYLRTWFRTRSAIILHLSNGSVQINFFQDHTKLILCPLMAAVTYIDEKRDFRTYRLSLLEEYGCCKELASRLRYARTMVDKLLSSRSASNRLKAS
Experimental: Compounds were screened for their ability to inhibit Plk1 using a radioactive-phosphate incorporation assay. Assays were carried out in a mixture of 25 mM HEPES (pH 7.5), 10 mM MgCl2, 25 mM NaCl, and 2 mM DTT. Final substrate concentrations were 20 μM [γ-33P]ATP (35mCi 33P ATP/mmol ATP, Perkin Elmer/Sigma Chemicals) and 9 uM Sam68 protein. Assays were carried out at room temperature in the presence of 15 nM Plk1. An assay stock buffer solution was prepared containing all of the reagents listed above, with the exception of ATP and the test compound of interest. 0.75 μL of DMSO stock containing serial dilutions of the test compound (typically starting from a final concentration of 10 μM with 2-fold serial dilutions—final DMSO concentration 1.5%) was placed in a 384 well plate followed by addition of 25 μL [γ-33P]ATP (final concentration 20 μM). The reaction was initiated by addition of 25 μL of the assay stock buffer solution.
The reaction was stopped after 45 minutes by the addition of 25 μL 30% trichloroacetic acid (TCA) containing 10 mM cold ATP. The entire quenched reaction was transferred to a 384-well glass fiber filter plate (Millipore, Cat no. MZFBNOW50). The plate was washed with 3×5% TCA. After drying, 40 μL of Ultima Gold liquid scintillation cocktail (Perkin Elmer) was added to the well prior to scintillation counting in a PerkinElmer TopCount.
After removing mean background values for all of the data points, Ki(app) data were calculated from non-linear regression analysis of the initial rate data using the Prism software package (GraphPad Prism, GraphPad Software, San Diego California, USA).

[2] = molecular target: HEK293 membranes over-expressing WFS-1 (Homo sapiens (Human), UniProt O76024); assay: Radioligand displacement assay (tritiated Compound 136 probe); assay type: binding; details: displacement of tritiated Compound 136
HEK293 membranes over-expressing WFS-1, sequence (O76024 whole entry): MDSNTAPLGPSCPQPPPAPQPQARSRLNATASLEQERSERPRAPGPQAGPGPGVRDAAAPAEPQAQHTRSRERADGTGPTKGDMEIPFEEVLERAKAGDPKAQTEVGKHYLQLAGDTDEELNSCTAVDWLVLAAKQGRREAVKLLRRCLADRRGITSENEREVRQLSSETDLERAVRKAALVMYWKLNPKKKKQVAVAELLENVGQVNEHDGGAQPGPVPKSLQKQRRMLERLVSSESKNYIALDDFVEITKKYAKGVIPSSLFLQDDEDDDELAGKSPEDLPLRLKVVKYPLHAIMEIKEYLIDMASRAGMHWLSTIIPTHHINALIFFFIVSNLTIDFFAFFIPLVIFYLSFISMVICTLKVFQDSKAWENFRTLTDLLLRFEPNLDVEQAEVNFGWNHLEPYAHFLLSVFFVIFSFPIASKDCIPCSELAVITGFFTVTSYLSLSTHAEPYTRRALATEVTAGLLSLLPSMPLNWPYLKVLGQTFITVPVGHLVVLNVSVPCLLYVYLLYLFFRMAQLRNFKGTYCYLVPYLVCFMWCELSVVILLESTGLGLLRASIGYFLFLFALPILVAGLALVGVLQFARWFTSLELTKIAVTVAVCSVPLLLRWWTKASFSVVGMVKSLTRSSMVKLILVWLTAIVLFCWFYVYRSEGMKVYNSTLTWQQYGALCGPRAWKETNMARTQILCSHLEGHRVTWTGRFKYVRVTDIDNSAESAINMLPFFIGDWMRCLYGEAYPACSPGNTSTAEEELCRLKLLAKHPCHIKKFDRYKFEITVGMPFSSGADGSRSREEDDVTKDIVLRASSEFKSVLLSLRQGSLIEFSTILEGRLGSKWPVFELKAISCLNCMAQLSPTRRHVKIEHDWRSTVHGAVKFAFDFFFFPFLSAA
Experimental: Cell pellets were re-suspended in 15 times packed cellular volume in 4° C. hypotonic lysis buffer (10 mM HEPES, pH 7.5 containing 1×Protease inhibitor, 0.5 mM EDTA and 2 mM DTT). Re-suspended cells were homogenized with 6-8 strokes in a dounce homogenizer kept on ice. Lysates were centrifuged at 500×G for 15 minutes at 4° C. without brake to decelerate rotor. Following centrifugation, remove the supernatant to a fresh tube and place on ice (Supernatant 1). Repeat the above steps on the lysed cell pellet using 0.5 the original volume of hypotonic lysis buffer and remove the 500× G supernatant (Supernatant 2) and combine with Supernatant 1. Transfer the combined supernatants to a 45-Ti ultracentrifuge tube and centrifuge at 100,000× G for 30 minutes. Following ultracentrifugation, carefully remove the supernatant and discard. Resuspend the 100,000× G pellet in cold resuspension buffer (10 mM HEPES, pH 7.5, 300 mM NaCl containing 1× Protease inhibitor, 1× EDTA and 2 mM DTT). Centrifuge sample at 500× G for 10 minutes with no brake and remove any cloudy, flocculent material. Resuspend pellet in resuspension buffer to approximately 2 mg/mL of protein concentration for use in radioligand binding assay and immunoblotting.
The binding affinities of compounds were determined by measuring the competitive displacement of a tritiated Compound 136 probe from purified HEK293 membranes over-expressing WFS-1. The data for the radioligand displacement assay are summarized in Table 47: A<0.06 μM; 0.06 μM≤B<0.6 μM; 0.6 μM≤C<3.0 μM; D≥3.0 μM.
The probe Kd was determined by titrating tritiated probe under the standard assay conditions plus and minus excess unlabeled probe and fitting the resulting data to a “One site—Total and nonspecific binding” model in Graphpad Prism, version 6.0, San Diego, CA, US. Initially, 0.25 μl of compound dissolved in DMSO at varying concentrations was dispensed to a 384 well plate. Membrane and probe were both prepared at 2× their final concentration in 1× assay buffer as described above. 25 μL of membrane was added to the wells and incubated for 10 minutes. 25 μL of diluted probe was then added to the wells. The assay was incubated for 90 minutes at room temperature. The entire assay volume was then transferred to Millipore GF/B 384-well plates pretreated with 15 μL 0.5% PEI. The filter plates were washed 3× with 75 μL 25 mM TRIS, ph7.5, 0.1% BSA and then dried overnight. Following addition of 45 μL UltimaGold scintillant, the samples were counted in a Perkin Elmer Topcount. The radioactivity remaining is a measure of bound probe. From the bound probe vs concentration of compound titration curve, the IC50 is determined by fitting the data to a standard 3 parameter IC50 model using either Graphpad Prism, version 6.0, San Diego, CA, US, or using GeneData Analyzer, Basel, Switzerland.

HepG2 XBP1(u)-Luc cells = assay: HepG2 XBP1 reporter assay; assay type: cell-based; details: 6 h
Experimental: HepG2 hepatoma cells were transduced with a retrovirus encoding the cDNA for unspliced (u) XBP1, which contains a non-processed intron, fused to the cDNA for firefly luciferase. Upon induction of ER stress, the non-processed intron of XBP1(u) is spliced out by active IRE1alpha endonuclease. The resulting spliced (s) XBP1 is now in frame with luciferase which causes the production of active luciferase protein, resulting in bioluminescence
HepG2 XBP1(u)-Luc cells were plated […] Cultured cells with a stably transfected reporter construct were plated at approximately 30,000 cells per well into 96 well multi-well plates for twenty four hours. The testing compounds were then added to the wells in 3-fold serial dilutions using a twenty seven micromolar top concentration. A series of control wells for each cell type received only compound solvent. Six hours after the addition of compound, reporter activity for luciferase was assayed, by addition of the SteadyGlo luminescence reagent (Promega). The reporter luminescence activity was measured using Pherastar plate reader (BMG Labtech). Readings was normalized to DMSO only treated cells, and normalized activities were then used in the IC50 calculations. The HepG2 XBP1 reporter assay data are summarized in Table 47: A<0.6 μM; 0.6 μM≤B<2.0 μM; 2.0 μM≤C<10.0 μM; D≥10.0 μM.

Colo-205 cells = assay: Calcium flux assay (FLIPR Calcium 5); assay type: cell-based; details: FLIPR Calcium 5, measured over 36 minutes
Experimental: Compounds described herein induced ER stress by causing intracellular calcium flux. Calcium flux was measured in Colo-205 cells using the FLTPR® Calcium 5 Assay Kit according to manufacter's protocol (Molecular Devices, Cat. #R8186) on a FLIPR3 system (Molecular Devices). Calcium flux is measured over 36 minutes. The Colo-205 calcium flux assay data are summarized in Table 47: A<0.6 μM; 0.6 μM≤B<2.0 μM; 2.0 μM≤C<10.0 μM; D≥10.0 μM.

[3] = test system: Colo205-TCF/LEF-Luciferase (Luc) tumor; assay: In vivo inhibition of TCF/LEF reporter activity in Colo-205 tumors; parameters: concentration or dose not given beside the values; details: TCF/LEF luciferase reporter in Colo-205 tumors, nu/nu mice, oral gavage
Experimental: Colo205-TCF/LEF-Luciferase (Luc) tumor cells were expanded in complete DMEM cell culture media [DMEM (Life Technologies, product #11960-051) media supplemented with 10% FBS (Hyclone, catalog #SH30071.03), antimycotic/antibiotic (Life Technologies, product #15240-062), and Glutamax (Life Technologies, product #35050-061)] with 1 ug/ml puromycin. After reaching confluency/high density, the loosely attached cells in media were transferred from the flask to 50 ml conical tubes. Tumor cells adhered to plastic were detached with trypsin and combined with cells in the conical tubes. The tumor cells were triturated, counted, and pelleted by centrifugation. Cell pellets were resuspended in 0.9% injectable saline (6×10^7 cells/ml). A 50 ul volume (3×10^6 cells) was injected subcutaneously in the flanks of 4-6 wk old female nu/nu mice (Charles River Laboratories). Approximately 13-16 days after implantation, tumors between 200-500 mm^3 were selected (based on caliper measurements and applying the formula […]) and randomized into groups of n=4. Mice were dosed by oral gavage with compound dissolved in 1:3:5:1 EtOH:DMSO:PEG-400:H2O at a rate of 10 ml/kg or 1:3:5:1 EtOH:DMSO:PEG-400:H2O alone (Vehicle Control). Tumors were collected from mice euthanized by CO2 inhalation and snap frozen in liquid nitrogen. Tumors were stored in a −80 degrees C. freezer until they were processed.
Tumors were thawed on ice and homogenized in cold Lysis Buffer (20 mM Tris-HCl (pH 7.5), 150 mM NaCl, 1 mM Na2EDTA, 1 mM EGTA, 1% Triton, 2.5 mM sodium pyrophosphate, 1 mM beta-glycerophosphate, 1 mM Na3VO4, 1 μg/ml leupeptin, 0.05% SDS) using a closed tissue grinder system (Fisher Scientific, Cat #02-542-09) on ice according to manufacturer's instructions. For 100 mg of tumor, 500 uL of Lysis Buffer was used. Tumor lysate was transferred to a pre-chilled microcentrifuge tube and centrifuged at 10,000×g for 10 minutes at 4 degrees C. Supernatant was transferred to a new pre-chilled microcentrifuge tube and was used immediately for analysis of protein content and luciferase activity.
Protein content of tumor lysate supernatant was determined using the BCA assay (Life Technologies Cat #23225). Luciferase activity of tumor lysate supernatant was determined by addition of Steady-Glo luminescence reagent (Promega, Cat #E2550) according to manufacturer's instructions and measurement on a Pherastar luminescence plate reader (BMG Labtech). Luciferase activity was normalized to protein content.

Row | IC50 ([1]; Homo sapiens, COLO 205, 5 h) | Ki (Plk1) | IC50 [1] | IC50 [2] | EC50 (Colo-205 cells; Homo sapiens, COLO 205, 0.6 h) | SMILES | also measured
1 | < 0.3 µM | > 4 µM |  |  |  | Cc1nc(N[C@H]2C[C@@H](Cn3nccc3C(F)(F)F)C2)nc2c1NC(=O)[C@H](C)N2C [Compound 275, (7S)-4,7,8-trimethyl-2-((cis-3-((5-(trifluoromethyl)-1H-pyrazol-1-yl)methyl)cyclobutyl)amino)-7,8-dihydropteridin-6(5H)-one] | 
2 |  | > 4 µM | 0.3 to 1 µM |  |  | Cc1nc(N[C@H]2CC[C@H](Oc3cc(F)c(F)c(F)c3)C2)nc2c1NC(=O)[C@H](C)N2C [Compound 268, (S)-4,7,8-trimethyl-2-(((1S,3S)-3-(3,4,5-trifluorophenoxy)cyclopentyl)amino)-7,8-dihydropteridin-6(5H)-one] | 
3 |  |  | < 0.3 µM | 0.06 to 0.6 µM |  | Cc1nc(N[C@H]2C[C@@H](COc3cnc(C(F)(F)F)nc3)C2)nc2c1NC(=O)[C@H](C(C)C)N2C [Compound 1417, (S)-7-isopropyl-4,8-dimethyl-2-(((1s,3R)-3-(((2-(trifluoromethyl)pyrimidin-5-yl)oxy)methyl)cyclobutyl)amino)-7,8-dihydropteridin-6(5H)-one] | IC50 (HepG2 XBP1(u)-Luc cells): < 0.6 µM; EC50 (Colo-205 cells): < 0.6 µM
4 | < 0.3 µM |  |  | < 0.06 µM | < 0.6 µM | CO[C@H](C)[C@H]1C(=O)Nc2c(C)nc(N[C@H]3C[C@@H](COc4ccc(C(F)(F)F)nc4)C3)nc2N1C [Compound 643, (S)-7-((R)—1-methoxyethyl)-4,8-dimethyl-2-((cis-3-(((6-(trifluoromethyl)pyridin-3-yl)oxy)methyl)cyclobutyl)amino)-7,8-dihydropteridin-6(5H)-one] | Percent Remaining Activity at 8 hrs after Dosing [3]: 22%
5 |  | > 4 µM |  |  |  | CC[C@@]1(C)C(=O)N(C)c2cnc(NCc3cnn(Cc4ccc(F)cc4)c3)nc2N1C [Compound 2, (7S)-7-ethyl-2-(((1-(4-fluorobenzyl)-1H-pyrazol-4-yl)methyl)amino)-5,7,8-trimethyl-7,8-dihydropteridin-6(5H)-one] | 
6 | < 0.3 µM |  |  | 0.06 to 0.6 µM | < 0.6 µM | CC[C@H]1C(=O)Nc2c(C)nc(NCc3cnn(C4CC(F)(F)C4)c3)nc2N1C [Compound 795, (S)-2-(((1-(3,3-difluorocyclobutyl)-1H-pyrazol-4-yl)methyl)amino)-7-ethyl-4,8-dimethyl-7,8-dihydropteridin-6(5H)-one] | IC50 (HepG2 XBP1(u)-Luc cells; Homo sapiens): < 0.6 µM
7 | < 0.3 µM |  |  | < 0.06 µM | < 0.6 µM | Cc1nc(N[C@H]2C[C@H](Oc3cc(F)c(F)cc3F)C2)nc2c1NC(=O)[C@H](C)N2C [Compound 292, (7S)-4,7,8-trimethyl-2-((trans 3-(2,4,5-trifluorophenoxy)cyclobutyl)amino)-7,8-dihydropteridin-6(5H)-one] | IC50 (HepG2 XBP1(u)-Luc cells; Homo sapiens): < 0.6 µM
8 |  |  | < 0.3 µM | < 0.06 µM |  | Cc1nc(N[C@H]2C[C@@H](COc3ccc(C(F)(F)F)nc3)C2)nc2c1NC(=O)[C@H](C(C)C)N2C (relative stereo) [Compound 551, (S)-7-isopropyl-4,8-dimethyl-2-((cis-3-(((6-(trifluoromethyl)pyridin-3-yl)oxy)methyl)cyclobutyl)amino)-7,8-dihydropteridin-6(511)-one] | Percent Remaining Activity at 8 hrs after Dosing [3]: 20%; EC50 (Colo-205 cells): < 0.6 µM
